Assay results from patent US5977130A, “Intimal hypertrophy inhibitors” (Taiho Pharmeutical Co., Ltd., priority 1996, dated 1999).
Where a name gives a salt, the structure may show the parent alone.

Tests used:
intimal hypertrophy [1] = assay: Intimal Hypertrophy Inhibiting Activity in Rats, test (1): balloon denudation of thoracic aorta; format: in vivo, male S.D. rats; conditions: Rattus norvegicus, 336 h, oral once a day, 14 days after denudation, read-out: Inhibition (%) of intimal hypertrophy (intima/media thickness ratio)
Procedure: (§1) Pharmacological Test (Intimal Hypertrophy Inhibiting Activity in Rats)
(§2) By use of various compounds which serve as active ingredients of the present invention, the following tests (1) and (2) were performed in accordance with the method described in Journal of Clinical Investigation,85 (1990) 2004.
Groups of 14- to 15-week-old male S.D. rats were used. A 3F balloon catheter was inserted in each rat, under etherification, through the right iliac artery to the aorta. While the balloon was inflated, the endothelium of the thoracic aorta was denuded. Subsequently, the balloon catheter was removed, and an antibiotic was added dropwise into the abdominal cavity, followed by saturing. Each drug was suspended in 0.5% methylcellulose, and a dose of 10 ml/kg was orally administered once a day, starting from 2 hours after denudation. To the controls were administered 0.5% methylcellulose.
The rats were sacrificed 14 days after denudation. The thoracic aorta was removed and fixed with 10% neutrally-buffered formalin. Six segments cut out from the lower part of each sample were processed by a customary method to thereby prepare paraffin sections. Six specimens of the sections from each rat were stained with hematoxylin-eosin. The thickness of the neoplastic intima at the site of maximal hypertrophy and that of the media at the same site were measured, and the ratio of intimal thickness to media thickness was calculated. Assessment was performed in terms of percentage of intimal hypertrophy inhibition as determined from the intima/media thickness ratios, using as standards the data from the groups to which drugs had not been administered.
The following four different compounds (a)-(d) were used as comparative compounds: […]

intimal hypertrophy [2] = assay: Intimal Hypertrophy Inhibiting Activity in Rats, test (2): balloon denudation of left carotid artery; format: in vivo, male S.D. rats; conditions: Dose 30 mg/kg, oral once a day, 14 days after denudation
Procedure: as §1, §2
Groups of 13- to 14-week-old male S.D. rats were used. A 2F balloon catheter was inserted in each rat under etherification through the right iliac artery to the left carotid artery. While the balloon was inflated, the endothelium of the left caroid artery was denuded. Subsequently, the balloon catheter was removed, and an antibiotic was added dropwise into the abdominal cavity, followed by saturing. Each drug was suspended in 0.5% methylcellulose, and a dose of 10 ml/kg was orally administered once a day, starting from 2 hours after denudation. To the controls were administered 0.5% methylcellulose.
The rats were sacrificed 14 days after denudation The left carotid artery was removed and fixed, through perfusion, with 10% buffered formalin. Each sample was divided into six segments and the segments were processed by a customary method to thereby prepare paraffin sections. Six specimens of the sections from each rat were stained with hematoxylin-eosin. The area of the neoplastic intima and that of the media were measured, and assessment was performed in terms of percentage of intimal hypertrophy inhibition as determined from the intima/media area ratios, using as standards the data from the groups to which drugs had not been administered.

intimal hypertrophy [3] = conditions: background statement; cited from earlier work

Molecule `COc1ccc(C=C2C(=O)Nc3ccccc32)cc1` [Compound 31, 3-(4-methoxybenzylidene)-oxindole] has an inhibition in vivo at 30 mg/kg (intimal hypertrophy [1]) of 40%.

For `O=C1Nc2ccccc2C1=C(c1ccccn1)c1ccccn1` [Compound 35, 3-(di-2-pyridylmethylene)-oxindole], the “Inhibition (%) of intimal hypertrophy (intima/media area ratio)” value (shortened to “Inhibition (%) … (intima/media area ratio)”) (intimal hypertrophy [2]) was 36.8%.

In the case of `COc1ccc(/C=C/C(=O)Nc2ccccc2C(=O)O)cc1OC` [a, Tranilast, reference compound], the inhibition in vivo at 30 mg/kg (intimal hypertrophy [1]) is given as 7.1%, the inhibition in vivo at 100 mg/kg (intimal hypertrophy [1]) is given as 18.1% and the “activity as intimal hypertrophy inhibitor” value (intimal hypertrophy [3]) is given as “weak activity”.

With `O=C1Nc2ccccc2C1=Cc1ccccn1` [Compound 38] the “Inhibition (%) … (intima/media area ratio)” value (intimal hypertrophy [2]) was 42.0%.

Work on `Cc1ccc(C(c2ccc(C)cc2)C2C(=O)Nc3ccccc32)cc1` (stereo not shown) [Compound 28] yielded an inhibition in vivo at 30 mg/kg (intimal hypertrophy [1]) of 28.4%.

Molecule `CC(C)c1cc(C=C2C(=O)Nc3ccccc32)cc(C(C)C)c1O` [b, reference compound] has an inhibition in vivo at 30 mg/kg (intimal hypertrophy [1]) of -26%.

With `CN(C)CCOc1ccc(C(=C2C(=O)Nc3ccccc32)c2ccc(OCCN(C)C)cc2)cc1` [Compound 6] the inhibition in vivo at 30 mg/kg (intimal hypertrophy [1]) was 14.7%.

With `O=C1Nc2ccccc2C1=C(c1ccc(O)cc1)c1ccc(O)cc1` [Compound 5] the inhibition in vivo at 30 mg/kg (intimal hypertrophy [1]) was 14.8%.

`O=C1Nc2ccc(O)cc2C1=Cc1cc2ccccc2[nH]1` [d, reference compound] gave an inhibition in vivo at 30 mg/kg (intimal hypertrophy [1]) of -0.1%.

`COc1ccc(C(=C2C(=O)Nc3ccc(N(C)C)cc32)c2ccc(OC)cc2)cc1` [Compound 10] gave an inhibition in vivo at 30 mg/kg (intimal hypertrophy [1]) of 14.8%.

For `O=C1Nc2ccccc2C1=C(c1ccccc1)c1ccccc1` [Compound 7], the inhibition in vivo at 30 mg/kg (intimal hypertrophy [1]) was 34.2%.

In the case of `CCOC(=O)c1ccc2c(c1)C(=C(c1ccc(C)cc1)c1ccc(C)cc1)C(=O)N2` [Compound 9], the inhibition in vivo at 30 mg/kg (intimal hypertrophy [1]) is reported as 26.6%.

`CCOC(=O)CN1C(=O)C(=C(c2ccc(OC)cc2)c2ccc(OC)cc2)c2ccccc21` [Compound 18] gave an inhibition in vivo at 30 mg/kg (intimal hypertrophy [1]) of 34.8%.

For `Nc1ccc(C(=C2C(=O)Nc3ccccc32)c2ccc(N)cc2)cc1` [Compound 33, 3-[bis(4-aminophenyl)methylene]-oxindole], the “Inhibition (%) … (intima/media area ratio)” value (intimal hypertrophy [2]) was 32.7%.

Work on `CON1C(=O)C(=Cc2cc(C(C)(C)C)c(O)c(C(C)(C)C)c2)c2ccc(Cl)cc21` [c, reference compound] yielded an inhibition in vivo at 30 mg/kg (intimal hypertrophy [1]) of -8.6%.

Molecule `Cc1ccc(C(=C2C(=O)Nc3ccccc32)c2ccc(C)cc2)cc1` [Compound 2] has an inhibition in vivo at 30 mg/kg (intimal hypertrophy [1]) of 36.5% and an inhibition in vivo at 100 mg/kg (intimal hypertrophy [1]) of 42.3%.

For `COc1ccc(C(=C2C(=O)Nc3cccnc32)c2ccc(OC)cc2)cc1` [Compound 8], the inhibition in vivo at 30 mg/kg (intimal hypertrophy [1]) was 28.9%.

Molecule `COc1ccc(C(=C2C(=O)N(C)c3ccccc32)c2ccc(OC)cc2)cc1` [Compound 17] has an inhibition in vivo at 30 mg/kg (intimal hypertrophy [1]) of 20.9%.

Work on `COc1ccc(C(=C2C(=O)N(S(=O)(=O)c3ccc(C)cc3)c3ccccc32)c2ccc(OC)cc2)cc1` [Compound 25, 1-paratoluenesulfonyl-3-[bis(4-methoxyphenyl)methylene]oxindole] yielded an inhibition in vivo at 30 mg/kg (intimal hypertrophy [1]) of 7.6%.

With `Cc1ccc(C(=C2C(=O)Nc3cc(N)ccc32)c2ccc(C)cc2)cc1` [Compound 13] the inhibition in vivo at 30 mg/kg (intimal hypertrophy [1]) was 10.9%.

`CCOC(=O)CCCCCN1C(=O)C(=C(c2ccc(OC)cc2)c2ccc(OC)cc2)c2ccccc21` [Compound 22] gave an inhibition in vivo at 30 mg/kg (intimal hypertrophy [1]) of 28%.

Work on `COc1cc(C=C2C(=O)Nc3ccccc32)cc(OC)c1O` [Compound 32] yielded an inhibition in vivo at 30 mg/kg (intimal hypertrophy [1]) of 34%.

Work on `COc1ccc(C(c2ccc(OC)cc2)C2C(=O)Nc3ccccc32)cc1` (stereo not shown) [Compound 27, 3-[bis(4-methoxyphenyl)methyl]oxindole] yielded an inhibition in vivo at 30 mg/kg (intimal hypertrophy [1]) of 19.7%.

`COc1ccc(C(=C2C(=O)N(CC(=O)N(C)C)c3ccccc32)c2ccc(OC)cc2)cc1` [Compound 20] gave an inhibition in vivo at 30 mg/kg (intimal hypertrophy [1]) of 7.2%.

For `COc1ccc(C(=C2C(=O)N(CCN(C)C)c3ccccc32)c2ccc(OC)cc2)cc1` [Compound 16, 1-dimethylaminoethyl-3-[bis(4-methoxyphenyl)methylene]oxindole.HCl], the inhibition in vivo at 30 mg/kg (intimal hypertrophy [1]) was 21.1%.

`COc1ccc(C(=C2C(=O)Nc3ccccc32)c2ccc(OC)cc2)cc1` [Compound 1, 3-[bis(4-methoxyphenyl)methylene]-oxindole] showed an inhibition in vivo at 30 mg/kg (intimal hypertrophy [1]) of 33.2% and an inhibition in vivo at 100 mg/kg (intimal hypertrophy [1]) of 46.6%.

Work on `COC(=O)c1ccc(CN2C(=O)C(=C(c3ccc(OC)cc3)c3ccc(OC)cc3)c3ccccc32)cc1` [Compound 24] yielded an inhibition in vivo at 30 mg/kg (intimal hypertrophy [1]) of 35.1%.
